# Laboratory results: patent US20260374794A1, “COMPOUNDS TARGETING MUTANT OF P53” (JACOBIO PHARMACEUTICALS CO., LTD., priority 2022, published 2026)
# Where two headings read alike, the source gives them in different places.
# How the values were obtained:
# [1] = target: p53(Y220C)_NUGC-3 (Homo sapiens, UniProt P04637, Y220C); experiment: Reporter gene assay (NUGC-3_P53_Luc cells); format: cell-based
# Experimental: NUGC-3_P53_Luc single clonal cell line was established using pGL4.38[luc2P/p53 RE/Hygro] Vector (E365A, promega). NUGC-3_P53_Luc single clonal cells were cultured in 37 °C cell incubator before use. NUGC-3_P53_Luc cells were collected and washed twice with PBS to remove phenol red and then resuspended in medium to a proper concentration. Tested compound dilutions were transferred into 384 well assay plates (PerkinElmer). A desired number of cells was seeded into the assay plate and cultured for 6 hours at 37 °C cell incubator. Britelite plus Luciferase Assay Reagent were added into each well and the luminescence value was recorded on Envision. The percent of activity value of compounds treated wells was normalized between high control and low control. Wells containing cells and Ref-la (10 μM) served as high control, and wells containing cells and same percentage of DMSO served as low control. Activity value (%)=(Luminescence readoutCompound treated−Luminescence readoutLow control)/(Luminescence readoutHigh control−Luminescence readoutLow control)*100%. Then the data were analyzed either by fitting a 4-parameter logistic model or by Excel to calculate EC50 values and the EC50 was the concentration at 50% Activity on the curve.
# [2] = target: T1, p53(Y220C) (Homo sapiens, UniProt P04637, Y220C); experiment: In vitro DNA binding assay (HTRF), His-p53 Y220C (94-294) with biotinylated p53 consensus DNA; format: biochemical
# T1 construct: His-p53 Y220C (94-294) protein
# Experimental: After His-p53 Y220C (94-294) protein was placed with a compound in the present of MAb Anti His-Tb cryptate (Cisbio, Cat. NO. 61HI2TLA) in a 384 well microplate (Greiner) for 15 min at 25 °C, the assay plate was transferred into 27 °C incubator and incubated for 60 min. Biotinalyted p53 consensus DNA (ID: p53-SEQUENCE 2 —F: 5′(biotin)-[…] 3′ —R: 5′ […] 3′) was added into the assay plate in the present of Streptaidin-d2 (Cisbio, Cat. NO. 610SADLF) cryptate (Final concentration: 20 mM HEPES pH=7.4, 75 mM KCl, 1 mM MgCl2, 0.1% (w/v) BSA, 1 mM DTT, 2.5 nM His-P53 Y220C (94-294) protein, 0.33 nM MAb Anti His-Tb cryptate, 2.5 nM Streptaidin-d2 cryptate, 10 nM Biotinalyted DNA) and incubated for another 60 min. Wells containing 2 μM reference compound Ref-1a served as high control, and wells containing same percentage of DMSO served as low control. Homogeneous time-resolved fluorescence (HTRF) signals were read on Tecan Spark multimode microplate reader. HTRF ratios for each individual well were calculated by equation: HTRF ratio=(Signal F665/Signal F620)*1000. The percent of activation of compounds treated wells were normalized between high control and low control (% Activation=(HTRF ratiocompound treated−HTRF ratiolow control)/(HTRF ratiohigh control−HTRF ratiolow control)*100%). Then the data were analyzed either by fitting a 4-parameter logistic model or by Excel to calculate EC50 values. And the EC50 was the concentration at 50% Activation on the curve.
# [3] = test system: NUGC-3 (P53 Y220C); experiment: Cell viability assay (CellTiter-Glo); format: cell-based; conditions: NUGC-3 cells, 6 days, 37 °C
# Experimental: Cells were collected and counted. A desired number of cells was seeded into 96-well microplate and cultured in 37 °C cell incubator overnight. Compounds dissolved in cell culture medium were added into cell plate and cultured for 6 days. After balancing CellTiter-Glo reagent and cells at room temperature for 30 min, equal volume of CellTiter-Glo reagents was added to assay plate and shaken for 2 min for cell lysis. The cells were balanced at room temperature for 10 minutes and Luminescence signal was read using Envision. The percent of cell viability for compounds treated wells were normalized between High control and low control. Wells containing cell culture medium and same percentage DMSO served as Low control. Wells containing cells and same percentage DMSO served as High control. Cell viability (%)=(Luminescence readoutCompound treated−Luminescence readoutLow control)/(Luminescence readoutHigh control−Luminescence readoutLow control)*100%. Then the data were analyzed either by fitting a 4-parameter logistic model or by Excel to calculate IC50 values. And the IC50 was the concentration at […] Cell viability on the curve.
# [4] = 6 hours, 37 °C, luciferase, normalized to Ref-1a 10 μM, EC50 = concentration at 50% Activity, read-out: p53(Y220C)_NUGC-3 EC50
# [5] = HTRF, 27 °C, His-p53 Y220C (94-294) 2.5 nM, biotinylated DNA 10 nM, normalized to 2 μM Ref-1a, EC50 = concentration at 50% Activation, read-out: p53(Y220C) EC50
SMILES,"EC50 ([1]; read-out: p53(Y220C)_NUGC-3 EC50, 6 hours, 37 °C, luciferase, normalized to Ref-1a 10 μM, EC50 = concentration at 50% Activity) [nM]",EC50 [2] [nM],"IC50 ([3]; Homo sapiens, 144 h) [nM]","EC50 [1, 4] [nM]","EC50 [2, 5] [nM]",IC50 [3] [nM]
"COc1cc(P(C)(C)=O)ccc1NCC#Cc1sc2c(N[C@@H]3CN4CCC3CC4)cccc2c1CC(F)(F)F [Example 48, (S)-(3-methoxy-4-((3-(7-(quinuclidin-3-ylamino)-3-(2,2,2-trifluoroethyl)benzo[b]thiophen-2-yl)prop-2-yn-1-yl)amino)phenyl)dimethylphosphine oxide]",439,65,1600,–,–,–
"COc1cc([S@@](=N)(=O)C2COC2)ccc1NCC#Cc1sc2c(N[C@@H]3CCN(C)C[C@@H]3F)cccc2c1CC(F)(F)F [Example 50, (S)-(4-((3-(7-(((3S,4R)-3-fluoro-1-methylpiperidin-4-yl)amino)-3-(2,2,2-trifluoroethyl)benzo[b]thiophen-2-yl)prop-2-yn-1-yl)amino)-3-methoxyphenyl)(imino)(oxetan-3-yl)-16-sulfanone]",–,–,1080,76,25,–
"COc1cc(S(C)(=O)=O)ccc1NCC#Cc1sc2c(N[C@@H]3CCN(C)C[C@@H]3F)cccc2c1CC(F)(F)F [Example 36, (3S,4R)-3-fluoro-N-(2-(3-((2-methoxy-4-(methylsulfonyl)phenyl)amino)prop-1-yn-1-yl)-3-(2,2,2-trifluoroethyl)benzo[b]thiophen-7-yl)-1-methylpiperidin-4-amine]",–,–,590,117,81,–
"COc1cc([S@](C)(=N)=O)ccc1NCC#Cc1sc2c(N[C@@H]3CC[N@+](C)([O-])C[C@@H]3F)cccc2c1CC(F)(F)F (single isomer, unassigned) [Example 8]",–,–,–,7230,38,–
"COc1cc([S@@](C)(=N)=O)ccc1NCC#Cc1sc2c(N[C@H]3CCN(C)C[C@H]3F)cccc2c1[C@@H](O)C(F)(F)F [Example 61, (S)-(4-((3-(7-(((3R,4S)-3-fluoro-1-methylpiperidin-4-yl)amino)-3-((R)-2,2,2-trifluoro-1-hydroxyethyl)benzo[b]thiophen-2-yl)prop-2-yn-1-yl)amino)-3-methoxyphenyl)(imino)(methyl)-16-sulfanone]",–,–,380,78,36,–
"COc1cc([S@@](=N)(=O)C2CC2)ccc1NCC#Cc1sc2c(N[C@@H]3CCN(C)C[C@@H]3F)cccc2c1CC(F)(F)F [Example 54, (S)-cyclopropyl(4-((3-(7-(((3S,4R)-3-fluoro-1-methylpiperidin-4-yl)amino)-3-(2,2,2-trifluoroethyl)benzo[b]thiophen-2-yl)prop-2-yn-1-yl)amino)-3-methoxyphenyl)(imino)-16-sulfanone]",–,–,–,143,58,1050
"COc1cc([S@@](C)(=N)=O)ccc1NCC#Cc1sc2c(N[C@H]3CCN(C)C[C@@H]3F)cccc2c1[C@@H](O)C(F)(F)F [Example 58, (S)-(4-((3-(7-(((3S,4S)-3-fluoro-1-methylpiperidin-4-yl)amino)-3-((R)-2,2,2-trifluoro-1-hydroxyethyl)benzo[b]thiophen-2-yl)prop-2-yn-1-yl)amino)-3-methoxyphenyl)(imino)(methyl)-16-sulfanone]",–,–,400,44,35,–
"COc1cc(P(C)(C)=O)ccc1NCC#Cc1sc2c(N[C@@H]3CCCN(C)C3)cccc2c1CC(F)(F)F [Example 28, (R)-(3-methoxy-4-((3-(7-((1-methylpiperidin-3-yl)amino)-3-(2,2,2-trifluoroethyl)benzo[b]thiophen-2-yl)prop-2-yn-1-yl)amino)phenyl)dimethylphosphine oxide]",–,–,1550,244,77,–
"COc1cc(S(C)(=O)=O)ccc1NCC#Cc1cc2c(N[C@@H]3CCN(C)C[C@@H]3F)cccc2n1CC(F)(F)F [Ref-1a, reference compound]",–,–,–,50,–,–
"COc1cc(P(C)(C)=O)ccc1NCC#Cc1sc2c(N[C@@H]3CC[N@+](C)([O-])C[C@@H]3F)cccc2c1CC(F)(F)F (single isomer, unassigned) [Example 10]",–,–,–,11100,53,–
"CN1CC[C@@H](Nc2cccc3c(CC(F)(F)F)c(C#CCNc4ccc(P(C)(C)=O)c5c4C(=O)NC5)sc23)[C@@H](F)C1 [Example 55, 4-(dimethylphosphoryl)-7-((3-(7-(((3S,4R)-3-fluoro-1-methylpiperidin-4-yl)amino)-3-(2,2,2-trifluoroethyl)benzo[b]thiophen-2-yl)prop-2-yn-1-yl)amino)isoindolin-1-one]",–,–,1290,196,31,–
"COc1cc(P(C)(C)=O)ccc1NCC#Cc1sc2c(N[C@@H]3CC[N@@+](C)([O-])C[C@@H]3F)cccc2c1CC(F)(F)F (single isomer, unassigned) [Example 7]",–,–,–,3940,81,–
"COc1cc([S@](C)(=N)=O)ccc1NCC#Cc1sc2c(N[C@@H]3CC[N@@+](C)([O-])C[C@@H]3F)cccc2c1CC(F)(F)F (single isomer, unassigned) [Example 9]",–,–,–,1900,62,–
"COc1cc(P(C)(C)=O)ccc1NCC#Cc1sc2c(NC3CN(C)CC3F)cccc2c1CC(F)(F)F (stereo not drawn) [Example 13, (4-((3-(7-((4-fluoro-1-methylpyrrolidin-3-yl)amino)-3-(2,2,2-trifluoroethyl)benzo[b]thiophen-2-yl)prop-2-yn-1-yl)amino)-3-methoxyphenyl)dimethylphosphine oxide]",–,–,1390,138,104,–
"COc1c(NCC#Cc2sc3c(N[C@@H]4CCN(C)C[C@@H]4F)cccc3c2CC(F)(F)F)ccc(P(C)(C)=O)c1C(F)(F)F [Example 42, (4-((3-(7-(((3S,4R)-3-fluoro-1-methylpiperidin-4-yl)amino)-3-(2,2,2-trifluoroethyl)benzo[b]thiophen-2-yl)prop-2-yn-1-yl)amino)-3-methoxy-2-(trifluoromethyl)phenyl)dimethylphosphine oxide]",–,–,1890,252,93,–
"CN1CC[C@@H](Nc2cccc3c(CC(F)(F)F)c(C#CCNc4ccc(P(C)(C)=O)cc4-c4cc[nH]n4)sc23)[C@@H](F)C1 [Example 3, (4-((3-(7-(((3S,4R)-3-fluoro-1-methylpiperidin-4-yl)amino)-3-(2,2,2-trifluoroethyl)benzo[b]thiophen-2-yl)prop-2-yn-1-yl)amino)-3-(1H-pyrazol-3-yl)phenyl)dimethylphosphine oxide]",–,–,1400,55,–,–
"CN1CC[C@@H](Nc2cccc3c(CC(F)(F)F)c(C#CCNc4ccc(P(C)(C)=O)c5ccoc45)sc23)[C@@H](F)C1 [Example 2, (7-((3-(7-(((3S,4R)-3-fluoro-1-methylpiperidin-4-yl)amino)-3-(2,2,2-trifluoroethyl)benzo[b]thiophen-2-yl)prop-2-yn-1-yl)amino)benzofuran-4-yl)dimethylphosphine oxide]",–,–,–,196,–,–
